Results as given in the supplement of paper PMC11061612.

What was measured:
Experiment in all cases: combination Emax (second highest fraction inhibited in the dose matrix, 72 h); higher = more inhibition; extreme values may be limits of the assay
CAL-72 (Osteosarcoma) = tested on: CAL-72 (Osteosarcoma)
How it was run: (§1)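 Cell lines in DMEM/F12 or RPMI with 10% FBS were plated in 1536-well plates, held 24 hours at 37°C, 5% CO2, then given two-drug dose matrices for 72 hours (DMSO typically 0.2%). Viability was read by CellTiter-Glo 2.0 luminescence and scaled as inhibition from 0 (vehicle wells) to 1 (blank wells). Combination Emax is the second-highest inhibition in the matrix; Bliss excess is observed combination effect minus expected EA + EB − EA·EB, EA and EB being single-agent effects.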

LOXIMVI (Melanoma) = tested on: LOXIMVI (Melanoma)
How it was run: as §1

[1] = tested on: HuCCT1 (Biliary Tract Carcinoma)
How it was run: as §1

[2] = tested on: SNU-449 (Hepatocellular Carcinoma)
How it was run: as §1

[3] = tested on: ESS-1 (Other Solid Carcinomas)
How it was run: as §1

[4] = tested on: WSU-NHL (B-Cell Non-Hodgkin's Lymphoma)
How it was run: as §1

[5] = tested on: HH (T-Cell Non-Hodgkin's Lymphoma)
How it was run: as §1

EW-11 (Ewing's Sarcoma) = tested on: EW-11 (Ewing's Sarcoma)
How it was run: as §1

[6] = tested on: TGBC1TKB (Biliary Tract Carcinoma)
How it was run: as §1

[7] = tested on: LS-123 (Colorectal Carcinoma)
How it was run: as §1

[8] = tested on: LNZTA3WT4 (Low Grade Glioma)
How it was run: as §1

[9] = tested on: OE21 (Esophageal Squamous Cell Carcinoma)
How it was run: as §1

[10] = tested on: ALL-PO (B-Lymphoblastic Leukemia)
How it was run: as §1

[11] = tested on: BFTC-909 (Kidney Carcinoma)
How it was run: as §1

[12] = tested on: HeLa (Cervical Carcinoma)
How it was run: as §1

BPH-1 (Non-Cancerous) = tested on: BPH-1 (Non-Cancerous)
How it was run: as §1

[13] = tested on: L-428 (Hodgkin's Lymphoma)
How it was run: as §1

SMILES | combination Emax (CAL-72 (Osteosarcoma)) | combination Emax (LOXIMVI (Melanoma)) | combination Emax [1] | combination Emax [2] | combination Emax [3] | combination Emax [4] | combination Emax [5] | combination Emax (EW-11 (Ewing's Sarcoma)) | combination Emax [6] | combination Emax [7] | combination Emax [8] | combination Emax [9] | combination Emax [10] | combination Emax [11] | combination Emax [12] | combination Emax (BPH-1 (Non-Cancerous)) | combination Emax [13]
O=C(c1cc(Cc2n[nH]c(=O)c3ccccc23)ccc1F)N1CCN(C(=O)C2CC2)CC1 [Olaparib] + CC1(C)CCC(CN2CCN(c3ccc(C(=O)NS(=O)(=O)c4ccc(NCC5CCOCC5)c([N+](=O)[O-])c4)c(Oc4cnc5[nH]ccc5c4)c3)CC2)=C(c2ccc(Cl)cc2)C1 [Venetoclax] (first compound max 10 µM, 7x7, partner max 1 µM) | 0.191 | 0.352 | 0.0844 | 0.0891 | 0.467 | 0.575 | 0.165 | 0.698 | 0.108 | 0.191 | 0.0965 |  |  |  |  |  | 
CN(CCO)CC[C@H](CSc1ccccc1)Nc1ccc(S(=O)(=O)NC(=O)c2ccc(N3CCC([C@@H](O)c4ccccc4-c4ccc(Cl)cc4)CC3)cc2)cc1S(=O)(=O)C(F)(F)F [AZD4320] + CS(=O)(=O)CCNCc1ccc(-c2ccc3ncnc(Nc4ccc(OCc5cccc(F)c5)c(Cl)c4)c3c2)o1 [Lapatinib] (first compound max 1 µM, 7x7, partner max 10 µM) | 0.933 | 0.64 | 0.615 | 0.694 | 0.973 | 0.945 | 0.316 | 0.95 | 0.58 |  | 0.398 |  |  |  |  |  | 
C[C@@H]1COCCN1c1cc(C2([S@](C)(=N)=O)CC2)nc(-c2ccnc3[nH]ccc23)n1 [AZD6738] + Nc1ccn([C@@H]2O[C@H](CO)[C@@H](O)C2(F)F)c(=O)n1 [Gemcitabine] (first compound max 10 µM, 7x7, partner max 0.3 µM) | 0.897 | 0.92 | 0.779 | 0.557 | 1 | 0.993 | 0.716 | 0.833 | 0.583 | 0.705 | 0.954 |  |  |  |  |  | 
Cc1nc(-c2cn3c(n2)-c2ccc(-c4cnn(C(C)(C)C(N)=O)c4)cc2OCC3)n(C(C)C)n1 [Taselisib] + O=C(Nc1ccc2[nH]nc(-c3ccncc3)c2c1)[C@@H]1CCN(CC(=O)N2CCN(c3ccc(-c4ncccn4)cc3)CC2)C1 [SCH772984] (first compound max 10 µM, 7x7, partner max 5 µM) | 0.438 | 1 | 0.839 | 0.445 | 0.923 | 0.97 | 0.393 | 0.746 | 0.663 | 0.889 | 0.66 |  |  |  |  |  | 
CS(=O)(=O)CCNCc1ccc(-c2ccc3ncnc(Nc4ccc(OCc5cccc(F)c5)c(Cl)c4)c3c2)o1 [Lapatinib] + Cn1cnc2c(F)c(Nc3ccc(Br)cc3Cl)c(C(=O)NOCCO)cc21 [Selumetinib] (first compound max 10 µM, 7x7, partner max 10 µM) | 0.446 | 0.717 | 0.801 | 0.514 | 0.705 | 0.788 | 0.211 | 0.195 | 0.288 | 0.677 | 0.369 |  |  |  |  |  | 
CCc1c2c(nc3ccc(O)cc13)-c1cc3c(c(=O)n1C2)COC(=O)[C@]3(O)CC [SN-38] + O=C(c1cc(Cc2n[nH]c(=O)c3ccccc23)ccc1F)N1CCN(C(=O)C2CC2)CC1 [Olaparib] (first compound max 0.3 µM, 7x7, partner max 10 µM) | 0.708 | 0.784 | 0.662 | 0.175 | 1 | 1 | 0.103 | 0.742 | 0.493 | 0.55 | 0.464 | 0.669 | 0.981 | 0.931 | 0.397 | 0.963 | 0.94
CS(=O)(=O)CCNCc1ccc(-c2ccc3ncnc(Nc4ccc(OCc5cccc(F)c5)c(Cl)c4)c3c2)o1 [Lapatinib] + NC1(c2ccc(-c3nc4ccn5c(=O)[nH]nc5c4cc3-c3ccccc3)cc2)CCC1 [MK-2206] (first compound max 10 µM, 7x7, partner max 10 µM) | 0.89 | 0.967 | 0.893 | 0.82 | 0.96 | 0.969 | 0.451 | 0.948 | 0.623 | 0.629 | 0.911 |  |  | 0.941 |  |  | 
CC1(C)CCC(CN2CCN(c3ccc(C(=O)NS(=O)(=O)c4ccc(NCC5CCOCC5)c([N+](=O)[O-])c4)c(Oc4cnc5[nH]ccc5c4)c3)CC2)=C(c2ccc(Cl)cc2)C1 [Venetoclax] + CS(=O)(=O)CCNCc1ccc(-c2ccc3ncnc(Nc4ccc(OCc5cccc(F)c5)c(Cl)c4)c3c2)o1 [Lapatinib] (first compound max 1 µM, 7x7, partner max 10 µM) | 0.646 | 0.426 | 0.397 | 0.445 | 0.669 | 0.798 | 0.129 | 0.263 | 0.134 | 0.267 | 0.208 |  |  |  |  |  | 
